Test results published in US12723063B2, “GIPR-agonist compounds” (Eli Lilly and Company, priority 2019, dated 2026).
*1 amine or outer side, *2 acyl side, *3 side chain or, on linkers, in order; H or OH if unused. Where a SMILES comes first, the peptide text is derived from it. Side-chain parts run from the residue outwards. [ ]: non-standard residue; d: D form. The star is where a group is joined. C20 diacid = O=C(O)CCCCCCCCCCCCCCCCCCC(=O)*; C18 diacid = O=C(O)CCCCCCCCCCCCCCCCC(=O)*; γGlu = O=C(O)[C@H](CCC(=O)[*:2])N[*:1]; 4Pal = N[C@@H](Cc1ccncc1)C(=O)O; αMeL = CC(C)C[C@](C)(N)C(=O)O; Orn = NCCC[C@H](N)C(=O)O; AEEA = NCCOCCOCC(=O)O; Aib = CC(C)(N)C(=O)O

What was measured:
human GcgR = biological target: T1, human GcgR (Homo sapiens, UniProt P47871); assay: [125I]-Glucagon binding, SPA with WGA beads, 0.1% bacitracin; settings: geometric mean, read-out: hGcgR Ki
T1 construct: expressed in transfected cells; crude membranes
How it was run: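 SPA competition binding with WGA beads on crude membranes from HEK293 cells stably expressing hGcgR. Buffer: 25 mM HEPES pH 7.4, 2.5 mM CaCl2, 1 mM MgCl2, 0.1% bacitracin, 0.003% Tween-20; 10-point 3-fold dilutions, NSB with 1 μM Gcg.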

[1] = biological target: T2, human GLP-1 receptor (GLP-1R) (Homo sapiens, UniProt P43220); assay: cAMP functional assay (HTRF) in HEK293 cells in presence of 0.1% casein; format: cell-based; settings: HEK293 cells expressing human GLP-1R, geometric mean, read-out: hGLP1R cAMP Rel EC50 nM (SEM, n)
T2 construct: expressed in transfected cells; host or cells: HEK293

[2] = biological target: T3, human glucagon receptor (GcgR) (Homo sapiens, UniProt P47871); assay: as above; format: cell-based; settings: HEK293 cells expressing human GcgR, geometric mean, read-out: hGcgR cAMP Rel EC50 nM (SEM, n)
T3 construct: expressed in transfected cells; host or cells: HEK293
T3 sequence (P47871 26-477): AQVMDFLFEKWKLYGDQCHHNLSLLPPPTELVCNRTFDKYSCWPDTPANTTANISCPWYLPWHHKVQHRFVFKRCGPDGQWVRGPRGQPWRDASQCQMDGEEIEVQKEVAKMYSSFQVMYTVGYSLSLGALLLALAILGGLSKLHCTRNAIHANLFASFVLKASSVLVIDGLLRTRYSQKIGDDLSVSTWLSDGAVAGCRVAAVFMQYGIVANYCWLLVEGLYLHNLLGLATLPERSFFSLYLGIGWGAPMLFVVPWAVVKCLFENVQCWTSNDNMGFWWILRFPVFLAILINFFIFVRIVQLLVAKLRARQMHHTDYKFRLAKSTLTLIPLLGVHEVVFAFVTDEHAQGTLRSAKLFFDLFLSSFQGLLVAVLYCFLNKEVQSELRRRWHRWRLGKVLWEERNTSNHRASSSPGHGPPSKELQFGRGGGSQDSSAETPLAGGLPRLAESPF

T1 sequence (P47871 26-477): as above
T2 sequence (P43220 24-463): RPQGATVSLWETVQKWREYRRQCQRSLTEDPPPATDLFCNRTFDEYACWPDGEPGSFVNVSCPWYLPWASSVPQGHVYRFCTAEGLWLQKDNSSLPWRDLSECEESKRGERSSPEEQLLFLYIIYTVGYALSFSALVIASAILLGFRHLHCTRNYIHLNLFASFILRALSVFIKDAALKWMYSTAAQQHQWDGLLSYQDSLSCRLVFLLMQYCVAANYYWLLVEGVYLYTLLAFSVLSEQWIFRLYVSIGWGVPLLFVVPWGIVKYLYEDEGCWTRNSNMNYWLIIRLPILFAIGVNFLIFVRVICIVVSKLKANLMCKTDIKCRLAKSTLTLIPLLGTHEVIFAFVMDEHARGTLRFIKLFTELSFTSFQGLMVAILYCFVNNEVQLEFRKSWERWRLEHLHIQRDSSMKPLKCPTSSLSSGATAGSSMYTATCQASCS

| SMILES | Ki (human GcgR) [µM] | EC50 [1] [nM] | EC50 [2] [nM] |
| --- | --- | --- | --- |
| CC[C@H](C)[C@H](NC(=O)[C@H](CCCN)NC(=O)[C@H](CC(=O)O)NC(=O)[C@H](CC(C)C)NC(=O)[C@](C)(CC(C)C)NC(=O)[C@@H](NC(=O)[C@H](CO)NC(=O)[C@H](Cc1ccc(O)cc1)NC(=O)[C@H](CC(=O)O)NC(=O)[C@H](CO)NC(=O)[C@@H](NC(=O)[C@H](Cc1ccccc1)NC(=O)[C@@H](NC(=O)CNC(=O)[C@H](CCC(=O)O)NC(=O)C(C)(C)NC(=O)[C@@H](N)Cc1ccc(O)cc1)[C@@H](C)O)[C@@H](C)CC)[C@@H](C)CC)C(=O)N[C@@H](Cc1c[nH]cn1)C(=O)N[C@@H](CCC(N)=O)C(=O)NC(C)(C)C(=O)N[C@@H](CC(=O)O)C(=O)N[C@@H](Cc1ccccc1)C(=O)N[C@H](C(=O)N[C@@H](CCC(=O)O)C(=O)N[C@@H](Cc1ccncc1)C(=O)N[C@@H](CCCCNC(=O)COCCOCCNC(=O)COCCOCCNC(=O)CC[C@H](NC(=O)CCCCCCCCCCCCCCCCC(=O)O)C(=O)O)C(=O)N[C@@H](CC(C)C)C(=O)N[C@@H](CCC(=O)O)C(=O)NCC(=O)NCC(=O)N1CCC[C@H]1C(=O)N[C@@H](CO)C(=O)N[C@@H](CO)C(=O)NCC(=O)N[C@@H](C)C(=O)N1CCC[C@H]1C(=O)N1CCC[C@H]1C(=O)N1CCC[C@H]1C(=O)N[C@@H](CO)C(N)=O)C(C)C [Example 111] (H-Y[Aib]EGTFISDYSI[αMeL]LD[Orn]IHQ[Aib]DFVE[4Pal]K([AEEA-AEEA-γGlu-C18 diacid])LEGGPSSGAPPPS-NH2) | > 0.96 | > 5000 | > 5000 |
| CC[C@H](C)[C@H](NC(=O)[C@H](CO)NC(=O)[C@H](Cc1ccc(O)cc1)NC(=O)[C@H](CC(=O)O)NC(=O)[C@H](CO)NC(=O)[C@@H](NC(=O)[C@H](Cc1ccccc1)NC(=O)[C@@H](NC(=O)CNC(=O)[C@H](CCC(=O)O)NC(=O)C(C)(C)NC(=O)[C@@H](N)Cc1ccc(O)cc1)[C@@H](C)O)[C@@H](C)CC)C(=O)N[C@@H](C)C(=O)N[C@@H](CC(C)C)C(=O)N[C@@H](CC(=O)O)C(=O)N[C@@H](CCCCN)C(=O)N[C@H](C(=O)N[C@@H](Cc1c[nH]cn1)C(=O)N[C@@H](CCC(N)=O)C(=O)NC(C)(C)C(=O)N[C@@H](CCC(=O)O)C(=O)N[C@@H](Cc1ccccc1)C(=O)N[C@H](C(=O)N[C@@H](CC(N)=O)C(=O)N[C@@H](Cc1ccc(O)cc1)C(=O)N[C@@H](CCCCNC(=O)COCCOCCNC(=O)COCCOCCNC(=O)CC[C@H](NC(=O)CCCCCCCCCCCCCCCCCCC(=O)O)C(=O)O)C(=O)N[C@@H](CC(C)C)C(=O)N[C@@H](C)C(=O)NCC(=O)NCC(=O)N1CCC[C@H]1C(=O)N[C@@H](CO)C(=O)N[C@@H](CO)C(=O)NCC(=O)N[C@@H](C)C(=O)N1CCC[C@H]1C(=O)N1CCC[C@H]1C(=O)N1CCC[C@H]1C(=O)N[C@@H](CO)C(N)=O)C(C)C)[C@@H](C)CC [Example 96] (H-Y[Aib]EGTFISDYSIALDKIHQ[Aib]EFVNYK([AEEA-AEEA-γGlu-C20 diacid])LAGGPSSGAPPPS-NH2) | > 0.96 | > 5000 | > 5000 |
| CC[C@H](C)[C@H](NC(=O)[C@H](CO)NC(=O)[C@H](Cc1ccc(O)cc1)NC(=O)[C@H](CC(=O)O)NC(=O)[C@H](CO)NC(=O)[C@@H](NC(=O)[C@H](Cc1ccccc1)NC(=O)[C@@H](NC(=O)CNC(=O)[C@H](CCC(=O)O)NC(=O)[C@@H](C)NC(=O)[C@@H](N)Cc1ccc(O)cc1)[C@@H](C)O)[C@@H](C)CC)C(=O)N[C@@H](CC(C)C)C(=O)N[C@@H](CC(C)C)C(=O)N[C@@H](CC(=O)O)C(=O)N[C@@H](CCCCN)C(=O)N[C@@H](CCCCNC(=O)COCCOCCNC(=O)COCCOCCNC(=O)CC[C@H](NC(=O)CCCCCCCCCCCCCCCCCCC(=O)O)C(=O)O)C(=O)N[C@@H](Cc1c[nH]cn1)C(=O)N[C@@H](CCC(N)=O)C(=O)N[C@@H](CCC(N)=O)C(=O)N[C@@H](CC(=O)O)C(=O)N[C@@H](Cc1ccccc1)C(=O)N[C@H](C(=O)N[C@@H](CC(N)=O)C(=O)N[C@@H](Cc1ccc(O)cc1)C(=O)N[C@@H](CC(C)C)C(=O)N[C@@H](CC(C)C)C(=O)N[C@@H](C)C(=O)N[C@@H](CCC(N)=O)C(=O)NCC(=O)N1CCC[C@H]1C(=O)N[C@@H](CO)C(=O)N[C@@H](CO)C(=O)NCC(=O)N[C@@H](C)C(=O)N1CCC[C@H]1C(=O)N1CCC[C@H]1C(=O)N1CCC[C@H]1C(=O)N[C@@H](CO)C(N)=O)C(C)C [Example 15] (H-Y[dA]EGTFISDYSILLDKK([AEEA-AEEA-γGlu-C20 diacid])HQQDFVNYLLAQGPSSGAPPPS-NH2) | > 0.254 | > 100 | > 5000 |
| CC[C@H](C)[C@H](NC(=O)[C@H](CO)NC(=O)[C@H](Cc1ccc(O)cc1)NC(=O)[C@H](CC(=O)O)NC(=O)[C@H](CO)NC(=O)[C@@H](NC(=O)[C@H](Cc1ccccc1)NC(=O)[C@@H](NC(=O)CNC(=O)[C@H](CCC(=O)O)NC(=O)[C@@H](C)NC(=O)[C@@H](N)Cc1ccc(O)cc1)[C@@H](C)O)[C@@H](C)CC)C(=O)N[C@@H](CC(C)C)C(=O)N[C@@H](CC(C)C)C(=O)N[C@@H](CC(=O)O)C(=O)N[C@@H](CCCCN)C(=O)N[C@@H](CCCCNC(=O)COCCOCCNC(=O)COCCOCCNC(=O)CC[C@H](NC(=O)CCCCCCCCCCCCCCCCCCC(=O)O)C(=O)O)C(=O)N[C@@H](C)C(=O)N[C@@H](CCC(N)=O)C(=O)N[C@@H](CCC(N)=O)C(=O)N[C@@H](CC(=O)O)C(=O)N[C@@H](Cc1ccccc1)C(=O)N[C@H](C(=O)N[C@@H](CC(N)=O)C(=O)N[C@@H](Cc1c[nH]c2ccccc12)C(=O)N[C@@H](CC(C)C)C(=O)N[C@@H](CC(C)C)C(=O)N[C@@H](C)C(=O)N[C@@H](CCC(N)=O)C(=O)NCC(=O)N1CCC[C@H]1C(=O)N[C@@H](CO)C(=O)N[C@@H](CO)C(=O)NCC(=O)N[C@@H](C)C(=O)N1CCC[C@H]1C(=O)N1CCC[C@H]1C(=O)N1CCC[C@H]1C(=O)N[C@@H](CO)C(N)=O)C(C)C [Example 11] (H-Y[dA]EGTFISDYSILLDKK([AEEA-AEEA-γGlu-C20 diacid])AQQDFVNWLLAQGPSSGAPPPS-NH2) | 0.163 | > 100 | 445 |
| CC[C@H](C)[C@H](NC(=O)[C@H](CCCCN)NC(=O)[C@H](CC(=O)O)NC(=O)[C@H](CC(C)C)NC(=O)[C@](C)(CC(C)C)NC(=O)[C@@H](NC(=O)[C@H](CO)NC(=O)[C@H](Cc1ccc(O)cc1)NC(=O)[C@H](CC(=O)O)NC(=O)[C@H](CO)NC(=O)[C@@H](NC(=O)[C@H](Cc1ccccc1)NC(=O)[C@@H](NC(=O)CNC(=O)[C@H](CCC(=O)O)NC(=O)C(C)(C)NC(=O)[C@@H](N)Cc1ccc(O)cc1)[C@@H](C)O)[C@@H](C)CC)[C@@H](C)CC)C(=O)N[C@@H](Cc1c[nH]cn1)C(=O)N[C@@H](CCC(N)=O)C(=O)NC(C)(C)C(=O)N[C@@H](CC(=O)O)C(=O)N[C@@H](Cc1ccccc1)C(=O)N[C@H](C(=O)N[C@@H](CCC(=O)O)C(=O)N[C@@H](Cc1ccncc1)C(=O)N[C@@H](CCCCNC(=O)COCCOCCNC(=O)COCCOCCNC(=O)CC[C@H](NC(=O)CCCCCCCCCCCCCCCCC(=O)O)C(=O)O)C(=O)N[C@@H](CC(C)C)C(=O)N[C@@H](CCC(=O)O)C(=O)NCC(=O)NCC(=O)N1CCC[C@H]1C(=O)N[C@@H](CO)C(=O)N[C@@H](CO)C(=O)NCC(=O)N[C@@H](C)C(=O)N1CCC[C@H]1C(=O)N1CCC[C@H]1C(=O)N1CCC[C@H]1C(=O)N[C@@H](CO)C(N)=O)C(C)C [Example 110] (H-Y[Aib]EGTFISDYSI[αMeL]LDKIHQ[Aib]DFVE[4Pal]K([AEEA-AEEA-γGlu-C18 diacid])LEGGPSSGAPPPS-NH2) | > 0.96 | > 5000 | > 5000 |
